The test system of assay [1] is PI3Kα H1047R mutation cell line T-47D. The experiment in a line: Cell Proliferation IC50 Assay (CellTiter-Glo), T-47D. It counts as cell-based. The following applies: T47D (H1047R), 72 hours, CellTiter-Glo, read-out: IC50 (μM) T47D. The source says:
(§1) PI3Kα H1047R mutation cell line T-47D and MDA-MB-453, E545K mutation cell line MDA-MB-361 and PI3Kα wide type cell line SK-BR-3 were purchased from Cobioer Biotech (cat. no CBP60397, CBP60386, CBP60383 and CBP60413 respectively). The CellTiter-Glo Direct Cell Proliferation Assay Kit was purchased from Prornega (cat. No. G7573)
(§2) For cell proliferation assay in each cell line: • a. Prepare complete medium (R PMI 1640, DMEM or McCoys): Add FBS and appropriate additives according to the information sheet provided by the vendor. Mix gently. • b. Prepare single cell suspension and count the cell numbers and adjust cells to appropriate density. • c. Add 80 μL of cell suspension to 96-well opaque-walled clear bottom plates according to the planned plate layout and place the plates in the CO2 incubator overnight. • d. Prepare intermediate plate: 10 μl of diluted test compounds or staurosporine solution (200×) is added to a 96 deep well plate. Then 390 μl of culture medium without FBS is added to the respective wells. • e. Transfer 20 μL of the solutions from the above intermediate plate to the wells of the plate prepared containing 80 μL of the culture medium and cells. The total dilution is 200 folds. • f. The cells were then incubated at 5% CO2, 37° C. for 72 hours. • g. Equilibrate the plate and its contents to room temperature for approximately 30 minutes. • h. Add 100 μL of CellTiter-Glo reagent to the assay plate • i. Mix contents for 10 minutes on an orbital shaker to induce cell lysis. • j. Allow the plate to incubate at room temperature for 10 minutes to stabilize luminescent signal, • k. Paste the clear bottom with white back seal and record luminescence with Varioskan LUX plate reader.
(§3) Inhibition % and IC50 value were calculated by the formula described below: […]
(In ATP-based viability assays light output follows the ATP content of the culture.)

In assay [2] the test system is PI3Kα wide type cell line SK-BR-3. The experiment in a line: Cell Proliferation IC50 Assay (CellTiter-Glo), SK-BR-3. It counts as cell-based. As to conditions: SK-BR-3 (PI3Kα wild type), 72 hours, CellTiter-Glo, read-out: IC50 (μM) SK-BR-3.
Excerpt: as §1, §2, §3

Like-named read-outs stand apart in the source and are kept apart here.

For orientation: IC50 means the point on the concentration scale where inhibition reaches its midpoint. Regarding `Cc1cc([C@@H](C)Nc2ccccc2C(=O)NS(C)(=O)=O)c2oc(-c3ccc4nn(C)cc4c3)cc(=O)c2c1` [Example 158, (R)-2-((1-(6-methyl-2-(2-methyl-2H-indazol-5-yl)-4-oxo-4H-chromen-8-yl)ethyl)amino)-N-(methylsulfonyl)benzamide], the IC50 in assay [1] (Homo sapiens, T47D, 72 h) was 5.5 µM; in assay [2] (Homo sapiens), greater than 10 µM.
The matching figures for `Cc1cc([C@@H](C)Nc2ccccc2C(=O)O)c2oc(-c3ccc(Cn4cncn4)cc3)c(C)c(=O)c2c1` [Example 136, (R)-2-((1-(2-(4-((1H-1,2,4-triazol-1-yl)methyl)phenyl)-3,6-dimethyl-4-oxo-4H-chromen-8-yl)ethyl)amino)benzoic acid]: greater than 10 µM and greater than 10 µM.
On the same counts, the results for `Cc1cc(C(C)Nc2ccccc2-c2nc(=O)o[nH]2)c2oc(-c3ccc4nn(C)cc4c3)c(C)c(=O)c2c1` (stereo not drawn) [Example 177, 3-(2-((1-(3,6-dimethyl-2-(2-methyl-2H-indazol-5-yl)-4-oxo-4H-chromen-8-yl)ethyl)amino)phenyl)-1,2,4-oxadiazol-5(2H)-one] are 0.31 µM and greater than 10 µM.
The matching figures for `Cc1cc([C@@H](C)Nc2ccccc2C(=O)O)c2oc(-c3ccc(CCN4CCOCC4)cc3)c(C)c(=O)c2c1` [Example 142, (R)-2-((1-(3,6-dimethyl-2-(4-(2-morpholinoethyl)phenyl)-4-oxo-4H-chromen-8-yl)ethyl)amino)benzoic acid]: 0.043 µM and greater than 10 µM.
In the case of `Cc1cc([C@@H](C)Nc2ccc(Cl)nc2C(=O)O)c2oc(-c3ccc(OCCN(C)C)cc3)c(C)c(=O)c2c1` [Example 165, (R)-6-chloro-3-((1-(2-(4-(2-(dimethylamino)ethoxy)phenyl)-3,6-dimethyl-4-oxo-41-1 chromen-8-yl)ethyl)amino)picolinic acid], the half-inhibitory concentration (IC50) in assay [1] (Homo sapiens, T47D, 72 h) was found to be 0.042 µM; in assay [2] (Homo sapiens) it was 4.39 µM.
Turning to `Cc1cc(C(C)Nc2ccccc2C(=O)O)c2oc(-c3cnn(C4COC4)c3)cc(=O)c2c1` (stereo not drawn) [Example 40, 2-((1-(6-methyl-2-(1-(oxetan-3-yl)-1H-pyrazol-4-yl)-4-oxo-4H-chromen-8-yl)ethyl)amino)benzoic acid], the 50% inhibitory concentration (IC50) in assay [1] (Homo sapiens, T47D, 72 h) was 2.51 µM; in assay [2] (Homo sapiens), greater than 10 µM.
On the same counts, the results for `Cc1cc([C@@H](C)Nc2ccccc2C(=O)O)c2oc(-c3ccc(OC4CN(C)C4)cc3)c(C)c(=O)c2c1` [Example 171, (R)-2-((1-(3,6-dimethyl-2-(4-((1-methylazetidin-3-yl)oxy)phenyl)-4-oxo-4H-chromen-8-yl)ethyl)amino)benzoic acid] are 0.072 µM and greater than 10 µM.
As for `Cc1cc(C(C)Nc2ccccc2C(=O)O)c2oc(-c3cc4cn(C)nc4cn3)cc(=O)c2c1` (stereo not drawn) [Example 83, 2-((1-(6-methyl-2-(2-methyl-2H-pyrazolo[3,4-c]pyridin-5-yl)-4-oxo-41H-chromen-8-yl)ethyl)amino)benzoic acid], the concentration for half-maximal inhibition (IC50) in assay [1] (Homo sapiens) is 0.38 µM; in assay [2] (Homo sapiens), greater than 10 µM.
Take `COC(=O)N1CCN(c2ccc(-c3oc4c([C@@H](C)Nc5ccccc5C(=O)O)cc(C)cc4c(=O)c3C)cn2)CC1` (single isomer, unassigned) [Example 155A]: the 50% inhibitory concentration (IC50) in assay [1] (Homo sapiens, T47D, 72 h) is 0.12 µM; in assay [2] (Homo sapiens) it was greater than 10 µM.
The matching figures for `CCn1cc2cc(-c3cc(=O)c4cc(C)cc(C(C)Nc5ccccc5C(=O)O)c4o3)ccc2n1` (stereo not drawn) [Example 93, 2-((1-(2-(2-ethyl-2H-indazol-5-yl)-6-methyl-4-oxo-41H-chromen-8-yl)ethyl)amino)benzoic acid]: 0.31 µM and greater than 10 µM.
Consider `Cc1cc(C(C)Nc2ccccc2C(=O)O)c2oc(-c3ccc4c(c3)CN(C)C4)cc(=O)c2c1` (stereo not drawn) [Example 94, 2-((1-(6-methyl-2-(2-methylisoindolin-5-yl)-4-oxo-4-chromen-8-yl)ethyl)amino)benzoic acid], for which the half-inhibitory concentration (IC50) is 1.02 µM in assay [1] (Homo sapiens, T47D, 72 h) and greater than 10 µM in assay [2] (Homo sapiens).
In the case of `Cc1cc([C@@H](C)Nc2ccccc2C(=O)O)c2oc(-c3ccc(CN4CCN(C)CC4)nc3)c(C)c(=O)c2c1` [Example 188, (R)-2-((1-(3,6-dimethyl-2-(6-((4-methylpiperazin-1-yl)methyl)pyridin-3-yl)-4-oxo-4H-chromen-8-yl)ethyl)amino)benzoic acid], the IC50 in assay [1] (Homo sapiens, T47D, 72 h) was 0.13 µM; in assay [2] (Homo sapiens) it was greater than 10 µM.
On to `Cc1cc([C@@H](C)Nc2ccccc2C(=O)O)c2oc(-c3ccc(N4CC(N(C)C)C4)cc3)c(C)c(=O)c2c1` [Example 170, (R)-2-((1-(2-(4-(3-(dimethylamino)azetidin-1-yl)phenyl)-3,6-dimethyl-4-oxo-4H-chromen-8-yl)ethyl)amino)benzoic acid], for which the IC50 was 0.096 µM in assay [1] (Homo sapiens, T47D, 72 h) and greater than 10 µM in assay [2] (Homo sapiens).
The matching figures for `Cc1cc(C(C)Nc2ccccc2C(=O)O)c2oc(-c3ccc(N4CCNCC4)cc3)cc(=O)c2c1` (stereo not drawn) [Example 41, 2-((1-(6-methyl-4-oxo-2-(4-(piperazin-1-yl)phenyl)-4H-chromen-8-yl)ethyl)amino)benzoic acid]: 1.43 µM and greater than 10 µM.
For the compound `Cc1cc([C@@H](C)Nc2ccccc2C(=O)NS(=O)(=O)C2CC2)c2oc(-c3ccc4nn(C)cc4c3)cc(=O)c2c1` [Example 157, (R)—N-(cyclopropylsulfonyl)-2-((1-(6-methyl-2-(2-methyl-2H-indazol-5-yl)-4-oxo-4H-chromen-8-yl)ethyl)amino)benzamide], the concentration for half-maximal inhibition (IC50) was 3.43 µM in assay [1] (Homo sapiens, T47D, 72 h) and greater than 10 µM in assay [2] (Homo sapiens).
`Cc1cc(C(C)Nc2ccccc2C(=O)O)c2oc(-c3cnc4nn(C)cc4c3)cc(=O)c2c1` (stereo not drawn) [Example 82, 2-((1-(6-methyl-2-(2-methyl-2H-pyrazolo[3,4-b]pyridin-5-yl)-4-oxo-41H-chromen-8-yl)ethyl)amino)benzoic acid]: the IC50 in assay [1] (Homo sapiens, T47D, 72 h) is greater than 10 µM; in assay [2] (Homo sapiens) it was greater than 10 µM.
On to `Cc1cc([C@H](C)Nc2ccccc2C(=O)O)c2oc(-c3ccc4nn(C)cc4c3)c(C)c(=O)c2c1` (single isomer, unassigned) [Example 49B], for which the IC50 was 7.24 µM in assay [1] (Homo sapiens, T47D, 72 h) and greater than 10 µM in assay [2] (Homo sapiens).
As to `Cc1cc([C@@H](C)Nc2ccccc2C(=O)O)c2oc(-c3ccc(OCC4CCCN4C)cc3)c(C)c(=O)c2c1` (single isomer, unassigned) [Example 172B], the 50% inhibitory concentration (IC50) in assay [1] was 0.063 µM; in assay [2], greater than 10 µM.
Consider `CC(=O)N1CCN(Cc2ccc(-c3oc4c([C@@H](C)Nc5ccccc5C(=O)O)cc(C)cc4c(=O)c3C)cc2)CC1` [Example 137, (R)-2-((1-(2-(4-((4-acetylpiperazin-1-yl)methyl)phenyl)-3,6-dimethyl-4-oxo-4H-chromen-8-yl)ethyl)amino)benzoic acid], for which the half-maximal inhibitory concentration (IC50) was 0.19 µM in assay [1] (Homo sapiens, T47D, 72 h) and greater than 10 µM in assay [2] (Homo sapiens).
The matching figures for `Cc1cc([C@@H](C)Nc2ccccc2C(=O)O)c2oc(-c3ccc(OCCN(C)C)cc3)cc(=O)c2c1` [Example 166, (R)-2-((1-(2-(4-(2-(dimethylamino)ethoxy)phenyl)-6-methyl-4-oxo-4H-1-chromen-8-yl)ethyl)amino)benzoic acid]: 0.23 µM and greater than 10 µM.
As to `Cc1cc([C@@H](C)Nc2ccc(Cl)nc2C(=O)O)c2oc(-c3ccc(-c4cnn(C)c4)nc3)c(C)c(=O)c2c1` [Example 186, (R)-6-chloro-3-((1-(3,6-dimethyl-2-(6-(1-methyl-1H-pyrazol-4-yl)pyridin-3-yl)-4-oxo-4H-chromen-8-yl)ethyl)amino)picolinic acid], the half-inhibitory concentration (IC50) in assay [1] (Homo sapiens, T47D, 72 h) came out at 0.16 µM; in assay [2] (Homo sapiens) it was 8.68 µM.
As for `Cc1cc(C(C)Nc2ccccc2C(=O)O)c2oc(-c3cc(F)c4nn(C)cc4c3)cc(=O)c2c1` (stereo not drawn) [Example 85, 2-((1-(2-(7-fluoro-2-methy-2H-indazol-5-yl)-6-methyl-4-oxo-4H-chromen-8-yl)ethyl)amino)benzoic acid], the half-inhibitory concentration (IC50) is 0.13 µM in assay [1] (Homo sapiens, T47D, 72 h) and greater than 10 µM in assay [2] (Homo sapiens).
On the same counts, the results for `COC(=O)N1CCN(c2ccc(-c3oc4c([C@H](C)Nc5ccccc5C(=O)O)cc(C)cc4c(=O)c3C)cn2)CC1` (single isomer, unassigned) [Example 155B] are 5.06 µM and greater than 10 µM.
In the case of `Cc1cc([C@@H](C)Nc2ccc(Cl)nc2C(=O)O)c2oc(-c3ccc(CN4CCN(C)CC4)cc3)c(C)c(=O)c2c1` [Example 189, (R)-6-chloro-3-((1-(3,6-dimethyl-2-(4-((4-methylpiperazin-1-yl)methyl)phenyl)-4-oxo-4H-chromen-8-yl)ethyl)amino)picolinic acid], the IC50 in assay [1] (Homo sapiens, T47D, 72 h) is 0.11 µM; in assay [2] (Homo sapiens) it was greater than 10 µM.

The values above are taken from patent publication US20250136568A1, “FUSED HETEROCYCLIC COMPOUNDS AS PI3KALPHA INHIBITORS” (Nanjing Zenshine Pharmaceuticals Co., Ltd., priority 2021, published 2025).
